In patent US20250034600A1, “ONIUM SALT COMPOSITIONS, METHODS FOR PRODUCING CELLULOSE HYDROLYSATES, ALCOHOLS AND/OR ORGANIC ACIDS IN THE PRESENCE OF ONIUM SALT COMPOSITIONS” (KOEI CHEMICAL COMPANY, LIMITED, priority 2023, published 2025):

How the values were obtained:
[1] = tested on: cellulase (produced by Sigma); assay: Enzymatic hydrolysis of microcrystalline cellulose with cellulase in the presence of the onium salt; assay type: biochemical; settings: 1.00 g microcrystalline cellulose in 5.00 g onium salt; 95.0 g water, 10 μL cellulase, 4 days; calculated from cellulose residue
Procedure: 5.00 g of 1,3-bis(3-methoxypropyl)imidazolium acetate was placed in a flask and maintained at 50° C. 1.00 g of microcrystalline cellulose (Avicel (registered trademark) PH-101) was added at 50° C., and the resulting mixture was stirred until visual observation confirmed that microcrystalline cellulose had been completely dissolved. 95.0 g of ultrapure water and 10 μL of cellulase (produced by Sigma) were added, and the resulting mixture was stirred for 4 days. The remaining cellulose residue was recovered by filtration, and the glucose conversion rate was calculated.
The same procedure as in Example 1 was repeated except that 1-ethyl-3-methylimidazolium acetate was used in place of the 1,3-bis(3-methoxypropyl)imidazolium acetate used in Example 1.

[2] = tested on: dry yeast; assay: Fermentation of glucose with dry yeast to ethanol in the presence of the onium salt; assay type: cell-based; settings: 0.20 g onium salt, 0.5 g glucose, 9.6 g water, 0.05 g dry yeast, stand overnight; ethanol quantified by GC
Procedure: (§1) 0.20 g of 1,3-bis(3-methoxypropyl)imidazolium acetate, 0.5 g of glucose (β-D-glucose (including α-D-glucose), produced by Tokyo Chemical Industry Co., Ltd.), and 9.6 g of ultrapure water were placed in a sample tube. The resulting mixture was stirred until the glucose was completely dissolved. After the glucose had been completely dissolved, 0.05 g of dry yeast was added and the resulting mixture was allowed to stand overnight. After filtering off the insoluble matter, the amount of ethanol produced was quantified by GC (gas chromatography) to calculate the ethanol yield.
as §1, with “1,3-bis(methoxyethoxypropyl)imidazolium acetate ([(MeOEtOPr)2Im][AcO]),” for “1,3-bis(3-methoxypropyl)imidazolium acetate,”, “added. The” for “added and the”
as §1, with “1,3-bis(ethoxypropyl)imidazolium acetate ([(EtOPr)2Im][AcO]),” for “1,3-bis(3-methoxypropyl)imidazolium acetate,”
The same procedure as in Example 2 was repeated except that 1-ethyl-3-methylimidazolium acetate was used in place of the 1,3-bis(3-methoxypropyl)imidazolium acetate used in Example 2.

[3] = tested on: yeast (Saccharomyces cerevisiae); assay: Antibacterial test (minimum inhibitory concentration, MIC value) against yeast; assay type: cell-based; settings: lower MIC = greater inhibition
Procedure: An antibacterial test (measurement of minimum inhibitory concentration (MIC value)) of 1,3-bis(3-methoxypropyl)imidazolium acetate and 1-ethyl-3-methylimidazolium acetate against yeast (Saccharomyces cerevisiae) was carried out. A lower MIC value indicates a greater degree of inhibition of enzymatic and/or microbial activity.

[4] = tested on: cellulase (produced by Sigma) and dry yeast; assay: Cellulose dissolution, cellulase hydrolysis and dry yeast fermentation to ethanol in one pot in the presence of the onium salt; assay type: cell-based; settings: 2.00 g onium salt, 0.50 g microcrystalline cellulose, 80° C. 3 h; 38.0 g water, 20 μL cellulase, 50° C. 10 h; 0.50 g dry yeast, 30° C. 7 h; GC
Procedure: 2.00 g of 1,3-bis(3-methoxypropyl)imidazolium acetate was placed in a sample tube, and 0.50 g of microcrystalline cellulose (Avicel (registered trademark) PH-101) was added. The resulting mixture was heated and stirred at 80° C. for 3 hours. After confirming by visual observation that the microcrystalline cellulose had been […], 38.0 g of ultrapure water and 20 μL of cellulase (produced by Sigma) were added. The resulting mixture was stirred at 50° C. for 10 hours. 0.50 g of dry yeast was then added and the resulting mixture was gently stirred at 30° C. After 7 hours, the insoluble matter was filtered off, and the amount of ethanol produced was quantified by GC (gas chromatography) to calculate the ethanol yield.
The same procedure as in Example 5 was repeated, except that 1-ethyl-3-methylimidazolium acetate was used in place of the 1,3-bis(3-methoxypropyl)imidazolium acetate used in Example 5.
The same procedure as in Example 5 was repeated, except that the 1,3-bis(3-methoxypropyl)imidazolium acetate used in Example 5 was not added and 2.00 g of ultrapure water was used in place of 2.00 g of 1,3-bis(3-methoxypropyl)imidazolium acetate.

Glucose conversion rate [1] [%]	MIC value [3] [%]	SMILES	Ethanol yield [2] [%]	Ethanol yield [4]
8	0.5	CC(=O)[O-].CCn1cc[n+](C)c1 [1-Ethyl-3-methylimidazolium acetate, 1-ethyl-3-methylimidazolium acetate, reference compound]	14.2	16.0
–	–	CC(=O)[O-].CCOCCCn1cc[n+](CCCOCC)c1 [[EtOPr]2Im] [AcO], 1,3-bis(ethoxypropyl)imidazolium acetate]	46.38	–
–	–	CC(=O)[O-].COCCOCCCn1cc[n+](CCCOCCOC)c1 [[MeOEtOPr]2Im] [AcO], 1,3-bis(methoxyethoxypropyl)imidazolium acetate]	53.77	–
73	5	CC(=O)[O-].COCCCn1cc[n+](CCCOC)c1 [[MeOPr]2Im] [AcO], 1,3-bis(3-methoxypropyl)imidazolium acetate]	66.64	51.5
